Reference: patent US9695153B2, “Oligooxopiperazines for p53 reactivation” (New York University, priority 2013, dated 2017)

Experiments:
[1] = tested on: p53 transcriptional activity in UMSCC47 cells; experiment: p53 transcriptional activity, Cignal p53 luciferase reporter; assay type: cell-based, human; conditions: 24 hours; for p53 activity, increase: vs vehicle
Protocol: Cells were transfected with 100 ng of Cignal p53 reporter (SABiosciences, Valencia, Calif.) using Lipofectamine 2000. Cignal p53 reporter contains tandem repeats of the p53 consensus transcriptional response element. After 48 hours, cells were washed with cold PBS, lysed in passive lysis buffer (Promega), and measured for Firefly/Renilla dual luciferase activities in a luminometer using the Dual-Light System (Applied Biosystems, Foster City, Calif.). […] to control for transfection efficiency. A modification to the protocol was used for compound treatment. UMSCC47 cells were transfected with 100 ng of Cignal p53 reporter. After 24 hours, cells were treated with vehicle, CH1iB (10 μM), cis-platinum (10 μM), or combination of CH1iB (10 μM) and cis-platinum (10 μM) and measured for Firefly/Renilla dual luciferase activities 24 hours post-treatment.

UMSCC47 cells [2] = experiment: Cell proliferation (MTT); assay type: cell-based, human; conditions: for cell proliferation, single-agent: UMSCC47, 10 μM; for cell proliferation, in combination with cis-platinum: UMSCC47, 10 μM with cis-platinum 10 μM
Protocol: (§1) Cell proliferation was assessed using the MTT reagent (Roche Molecular Biochemicals, Nutley, N.J.) to detect metabolic active cells. Absorbance was measured at 570 nm in the Spectra Max 190 ELISA reader (Molecular Devices, Sunnyvale, Calif.) after overnight incubation. For clonogenic survival, 200 cells per well were plated in complete growth media and allowed to grow until visible colonies were formed (14 days). Cell colonies were fixed with cold methanol, stained with 0.25% crystal violet in 25% methanol, washed, and air dried. For apoptosis, cells were harvested, washed with cold PBS, and co-stained with Annexin V and propidium iodide according to the manufacturer's protocol (ApoAlert Annexin V-FITC Apoptosis Kit; Clontech). Apoptotic cells were analyzed using BD FACS Calibur (BD Biosciences Corporation, Franklin Lakes, N.J.) at The Ohio State University Comprehensive Cancer Center Analytical Cytometry Core.

[3] = tested on: total and acetylated p53 in UMSCC47 cells; experiment: Western blot of total and acetylated[K382] p53; assay type: cell-based, human; conditions: 24 hours; for p53 accumulation and acetylated p53 levels: UMSCC47, 10 μM
Protocol: (§2) Whole cell lysates were mixed with Laemmli loading buffer, boiled, separated by SDS-PAGE, and transferred to a nitrocellulose membrane. Subsequently, immunoblot analyses were performed using antibodies specific to V5 (Invitrogen), p53 (sc-126, Santa Cruz Biotechnology, Santa Cruz, Calif.), or acetylated[[…]]-p53 (2525, Cell Signaling Technology). The signal was developed using the SuperSignal Western Blotting Kit (Pierce, Rockford, Ill.).

[4] = tested on: total and acetylated p53 in UMSCC74A cells; experiment: Western blot of total and acetylated[K382] p53; assay type: cell-based, human; conditions: 10 μM, 24 hours
Protocol: as §2

[5] = tested on: IMR90 (human normal fibroblasts); experiment: Cell proliferation (MTT); assay type: cell-based; conditions: for efficacy of cis-platinum on proliferation, combination: IMR90 fibroblasts, 10 μM with cis-platinum 10 μM; for cell proliferation, single-agent: human normal IMR90 fibroblasts, 10 μM
Protocol: as §1

[6] = tested on: p53 transcriptional activity in UMSCC74A cells; experiment: p53 transcriptional activity, Cignal p53 luciferase reporter; assay type: cell-based, human; conditions: HPV-negative UMSCC74A, 10 μM, 24 hours
[7] = tested on: p300, p53, p21, miR-34a, miR-200c expression in UMSCC74A cells; experiment: Quantitative real-time PCR (TaqMan); assay type: cell-based, human; conditions: 10 μM, 24 hours
Protocol: (§3) Cells were extracted for total RNA using the TRIzol® reagent (Invitrogen) or TaqMan PreAmp Cells-to-CT kit (Applied Biosystems). Expression of p300, p53, p21, miR-34a and miR-200c were determined using the Applied Biosystems 7900HT Fast Real-Time PCR System with validated TaqMan gene expression assays (Applied Biosystems). p53, p300, and p21 expression were normalized to GADPH and miR-34a and miR-200c expression were normalized to RNU44 using the ΔΔCt method.

UMSCC74A cells = experiment: Cell proliferation (MTT); assay type: cell-based, human; conditions: for cell proliferation, single-agent: HPV-negative UMSCC74A, 10 μM; for efficacy of cis-platinum on proliferation, combination: UMSCC74A, 10 μM with cis-platinum 10 μM
Protocol: as §1

[8] = target: T1, HPV16 E6-p300 association in UMSCC47 cells (Homo sapiens, UniProt Q09472); experiment: Immunoprecipitation, HPV16 E6-p300 association; assay type: cell-based; conditions: UMSCC47, 10 μM, 24 hours
T1 construct: endogenous in cells; host or cells: UMSCC47 (HPV16-positive HNSCC cells)
Protocol: Cells were lysed with NP buffer [50 mM Tris (pH 8.0), 150 mM NaCl, 0.5% deoxycholate, 0.1% SDS, and 1.0% NP-40] containing 1× Protease Inhibitor Cocktail (Roche, Switzerland) at 4° C. with gentle rocking for 15 min. The supernatant was pre-cleared to block nonspecific binding with 50 μL protein A/G Agarose beads (Pierce Biotechnology) that had been pre-washed with NP buffer before use. Equal amounts of anti-E6 antibody (Abcam), anti-p300 antibody (Millipore), or IgG antibody (Cell Signaling) were added to the respective samples. After 4 hours incubation at 4° C., 50 μL pre-washed protein A/G-agarose beads were added to each tube and immunoprecipitation was performed by rocking overnight at 4° C. The immunoprecipitated complexes were washed with NP buffer and then eluted using 2×SDS sample buffer. Eluted sample and 10% of input were resolved by SDS-PAGE for Western blot analysis with anti-E6, anti-p300, or anti-V5 antibodies.

UMSCC47 cells [9] = experiment: Apoptosis, Annexin V FACS; assay type: cell-based, human; conditions: UMSCC47, 10 μM, 24 hours, vs vehicle
Protocol: as §1

UMSCC47 cells [10] = experiment: Clonogenic survival; assay type: cell-based, human; conditions: UMSCC47, 10 μM, 14 days, vs vehicle
Protocol: as §1

[11] = tested on: p300, p53, p21, miR-34a, miR-200c expression in UMSCC47 cells; experiment: Quantitative real-time PCR (TaqMan); assay type: cell-based, human; conditions: UMSCC47, 10 μM, 24 hours
Protocol: as §3

UMSCC47 cells [12] = experiment: Tumorsphere formation; assay type: cell-based, human; conditions: UMSCC47, 10 μM, 7 days, vs vehicle
Protocol: Cells were harvested and seeded in a serum-free defined medium consisting of KSF medium supplemented with epidermal growth factor, basic fibroblast growth factor, insulin, and hydrocortisone in low-attachment plates (Corning Incorporated, Corning, N.Y.) for tumorspheres. Tumorsphere formation efficiency was calculated as the number of tumorspheres (≧50 μm in diameter) formed in 7 days divided by the original number of cells seeded. Tumorsphere diameter was measured using NIS-Elements software.

[13] = HPV-positive UMSCC47 cells, 10 μM
[14] = UMSCC47, CH1iB 10 μM and cis-platinum 10 μM

T1 sequence (Q09472 whole entry): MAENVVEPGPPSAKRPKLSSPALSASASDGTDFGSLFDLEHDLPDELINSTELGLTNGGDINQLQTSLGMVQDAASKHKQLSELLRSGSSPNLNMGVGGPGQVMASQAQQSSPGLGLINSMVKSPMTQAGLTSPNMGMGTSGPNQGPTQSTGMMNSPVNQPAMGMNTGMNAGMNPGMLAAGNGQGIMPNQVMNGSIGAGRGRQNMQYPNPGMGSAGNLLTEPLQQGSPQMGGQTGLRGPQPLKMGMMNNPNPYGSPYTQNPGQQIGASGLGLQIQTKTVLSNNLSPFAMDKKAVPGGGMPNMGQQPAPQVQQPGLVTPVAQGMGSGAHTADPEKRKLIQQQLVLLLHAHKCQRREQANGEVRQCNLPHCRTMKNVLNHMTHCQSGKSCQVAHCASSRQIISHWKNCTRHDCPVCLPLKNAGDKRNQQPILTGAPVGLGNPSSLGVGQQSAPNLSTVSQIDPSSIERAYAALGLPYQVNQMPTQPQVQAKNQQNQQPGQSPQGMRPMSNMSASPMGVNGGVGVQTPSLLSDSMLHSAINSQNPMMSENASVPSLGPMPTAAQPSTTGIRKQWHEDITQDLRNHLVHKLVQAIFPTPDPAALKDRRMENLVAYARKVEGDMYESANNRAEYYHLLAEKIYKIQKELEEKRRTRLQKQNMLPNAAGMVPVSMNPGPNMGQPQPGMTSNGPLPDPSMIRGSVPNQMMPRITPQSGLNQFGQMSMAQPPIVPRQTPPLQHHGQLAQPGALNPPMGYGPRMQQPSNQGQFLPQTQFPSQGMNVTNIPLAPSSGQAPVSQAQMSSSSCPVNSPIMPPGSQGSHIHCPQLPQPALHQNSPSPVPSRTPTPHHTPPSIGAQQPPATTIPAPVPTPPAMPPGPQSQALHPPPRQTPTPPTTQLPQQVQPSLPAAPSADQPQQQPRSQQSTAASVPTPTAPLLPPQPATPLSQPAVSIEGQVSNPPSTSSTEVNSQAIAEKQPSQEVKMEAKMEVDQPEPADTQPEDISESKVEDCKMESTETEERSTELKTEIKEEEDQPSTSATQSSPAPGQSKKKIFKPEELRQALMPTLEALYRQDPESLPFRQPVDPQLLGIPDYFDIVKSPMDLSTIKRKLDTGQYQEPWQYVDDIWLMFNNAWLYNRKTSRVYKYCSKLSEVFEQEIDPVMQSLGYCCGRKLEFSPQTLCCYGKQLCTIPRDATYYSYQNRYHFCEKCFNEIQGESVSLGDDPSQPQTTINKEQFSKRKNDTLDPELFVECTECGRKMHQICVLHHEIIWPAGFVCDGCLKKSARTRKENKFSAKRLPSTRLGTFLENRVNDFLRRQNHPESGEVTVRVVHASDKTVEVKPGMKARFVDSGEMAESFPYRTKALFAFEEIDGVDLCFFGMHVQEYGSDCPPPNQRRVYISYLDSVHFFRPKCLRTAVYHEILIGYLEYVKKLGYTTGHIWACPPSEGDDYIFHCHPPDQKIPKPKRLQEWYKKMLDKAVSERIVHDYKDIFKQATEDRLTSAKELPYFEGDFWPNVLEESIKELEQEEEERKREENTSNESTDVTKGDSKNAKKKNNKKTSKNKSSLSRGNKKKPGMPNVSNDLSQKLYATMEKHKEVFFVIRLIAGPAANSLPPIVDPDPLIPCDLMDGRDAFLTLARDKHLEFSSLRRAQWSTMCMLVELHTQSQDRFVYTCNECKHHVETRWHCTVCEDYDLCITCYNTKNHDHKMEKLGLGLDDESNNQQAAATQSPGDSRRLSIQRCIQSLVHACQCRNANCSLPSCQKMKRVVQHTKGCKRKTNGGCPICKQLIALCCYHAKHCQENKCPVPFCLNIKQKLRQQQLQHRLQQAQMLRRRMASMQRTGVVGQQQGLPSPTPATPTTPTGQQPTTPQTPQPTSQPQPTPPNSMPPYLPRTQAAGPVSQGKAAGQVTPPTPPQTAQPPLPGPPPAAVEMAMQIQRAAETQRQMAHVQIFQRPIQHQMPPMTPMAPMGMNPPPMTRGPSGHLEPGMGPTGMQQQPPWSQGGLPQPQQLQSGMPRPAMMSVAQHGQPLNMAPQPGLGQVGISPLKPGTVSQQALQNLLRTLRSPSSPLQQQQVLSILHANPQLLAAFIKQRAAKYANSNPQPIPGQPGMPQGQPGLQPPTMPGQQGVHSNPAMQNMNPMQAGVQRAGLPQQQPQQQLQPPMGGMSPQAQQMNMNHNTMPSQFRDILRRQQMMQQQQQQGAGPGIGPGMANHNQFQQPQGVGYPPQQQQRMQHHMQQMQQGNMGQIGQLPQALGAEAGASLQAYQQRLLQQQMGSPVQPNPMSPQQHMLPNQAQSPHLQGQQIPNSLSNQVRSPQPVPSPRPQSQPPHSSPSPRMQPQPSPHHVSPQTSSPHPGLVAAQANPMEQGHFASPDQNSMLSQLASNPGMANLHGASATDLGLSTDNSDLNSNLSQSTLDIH

Substance	p53 activity, increase [1, 13] [%]	cell proliferation, single-agent (UMSCC47 cells [2])	cell proliferation, in combination with cis-platinum (UMSCC47 cells [2])	p53 accumulation and acetylated p53 levels [3]	p53 levels [4]	efficacy of cis-platinum on proliferation, combination [5]	cell proliferation, single-agent [5]	p53 activity [6]	expression of p300, p53, and p53-regulated genes [7]	p53 activity [1, 13]	cell proliferation, single-agent (UMSCC74A cells)	efficacy of cis-platinum on proliferation, combination (UMSCC74A cells)	association between E6 and p300 [8]	apoptosis, enhancement (UMSCC47 cells [9]) [%]	effect of cis-platinum on p53 accumulation and acetylation, combination [3, 14]	clonogenic survival, reduction (inhibition) (UMSCC47 cells [10]) [%]	p21, miR-34a, and miR-200c expression [11]	tumorsphere formation, reduction (UMSCC47 cells [12]) [%]	effect of cis-platinum on p53 activity, combination [1, 14]
XELA*RAADQ-NH2 (ELXRAADQ; not fully specified; hydrogen bond surrogate crosslink; C-terminal amide; CH1iB-MUT) [specificity control for CH1iB in which one leucine residue is mutated to alanine]	14	no effect	no effect	–	–	–	–	–	–	–	–	–	–	–	–	–	–	–	–
XTAA*DCEYNAR (TAXDCEYNAR; not fully specified; hydrogen bond surrogate crosslink; CH1iA) [hydrogen bond surrogate stabilized α-helical mimic of HIF-1α targeting site A of p300 CH1, reference compound]	–	inactive	–	had no effect	did not modulate	did not augment	had no effect	did not modulate	unchanged	had no effect	had no effect	did not augment	not	–	–	–	–	–	–
XELA*RALDQ-NH2 (ELXRALDQ; not fully specified; hydrogen bond surrogate crosslink; C-terminal amide; CH1iB) [hydrogen bond surrogate helix mimic of HIF-1α targeting site B of p300 CH1]	71	inhibited	potentiated the anti-proliferative efficacy of cis-platinum	enhanced	did not modulate	did not augment	had no effect	did not modulate	unchanged	–	had no effect	did not augment	reduced	353	potentiated the effect of cis-platinum	35	modest but significant increase	20	potentiated the effect of cis-platinum
